Among the test systems are CCRF-CEM; HCT-116; HOP-62; OVCAR-4; UACC-257; HCC 2998; RXF 393; OVCAR-5; OVCAR-3; IGROV-1; NCI-H522; Malme-3M; CAKI-1; SK-MEL-5; HCT-15.
Assay in all cases: NCI tumour cell line growth inhibition, 48 h

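Results reflect a 48-hour exposure of cells in 96-well plates to compound at five concentrations. At the GI50, growth is halved.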 Activity calls are given as the source filed them. Rule as the data show it: active = GI50 up to about 1.1 µM and inactive = higher.

With `CC1=NN(C(=O)c2ccc(Cl)cc2)C(=O)/C1=C/c1ccco1`, the GI50 with CCRF-CEM, in the test with HCT-116, in the test on HOP-62, in the test with OVCAR-4, in the test with UACC-257 and in the test with HCC 2998 was > 100 µM (inactive) in each case. Moreover, the GI50 in the test with RXF 393, in the test on OVCAR-5, with OVCAR-3, with IGROV-1, with NCI-H522 and in the test on Malme-3M was > 100 µM (inactive) throughout. Moreover, the GI50 with CAKI-1 is > 100 µM (inactive); in the test on SK-MEL-5, > 100 µM (inactive); in the test with HCT-15, above 100 µM.

As for `Cc1ccc(NC(=O)C2C(=O)C(=O)N(c3ccc(C)cc3)C2=O)cc1` (stereo not given), the GI50 in the test on CCRF-CEM is > 100 µM (inactive); with HCT-116, > 100 µM (inactive); in the test on HOP-62, 93.3 µM (inactive); in the test with OVCAR-4, > 100 µM (inactive); with UACC-257 it was > 100 µM (inactive); with HCC 2998, > 100 µM (inactive). Further, the GI50 in the test on RXF 393 was 72.1 µM (inactive); with OVCAR-5, > 100 µM (inactive); in the test on IGROV-1, > 100 µM (inactive); in the test on NCI-H522 it was > 100 µM (inactive); in the test on Malme-3M it was > 100 µM (inactive); in the test with SK-MEL-5, > 100 µM (inactive). The same compound showed a GI50 in the test with HCT-15 above 100 µM.

`CN1CCS(=O)(=O)NC(Cc2ccccc2)C(=O)N2CCCC2C1=O` (stereo not given): the GI50 with CCRF-CEM, in the test on HCT-116, with HOP-62, in the test on OVCAR-4, in the test with UACC-257 and in the test on HCC 2998 was > 100 µM (inactive) in each case. Further, the GI50 in the test on OVCAR-5, with OVCAR-3, with IGROV-1, in the test with NCI-H522, in the test with Malme-3M and in the test on CAKI-1 was > 100 µM (inactive) in each case. In addition, the GI50 in the test with SK-MEL-5 is > 100 µM (inactive); in the test with HCT-15, above 100 µM.

For the compound `O=C(Nc1ccc(Cl)c(Cl)c1)C(=O)C(C(=O)c1ccccc1-c1ccccc1)C1OC(=O)c2ccccc21` (stereo not given), the GI50 with CCRF-CEM is 12.1 µM (inactive); with HCT-116, 10.5 µM (inactive); in the test with HOP-62, 13.1 µM (inactive); with UACC-257, 18.9 µM (inactive); in the test on HCC 2998, 14.5 µM (inactive); in the test with RXF 393, 8.15 µM (inactive). Further, the GI50 with OVCAR-5 was 18.5 µM (inactive); with OVCAR-3, 13.1 µM (inactive); with IGROV-1, 24.2 µM (inactive); in the test with NCI-H522, 6.56 µM (inactive); with Malme-3M, 8.55 µM (inactive); with SK-MEL-5 it was 15.1 µM (inactive).

Consider `Nc1nc(Cl)cc(NCCCCCCNc2cc(Cl)nc(N)n2)n1`, for which the GI50 with CCRF-CEM was 59.6 µM (inactive); in the test with HCT-116, 30.7 µM (inactive); in the test on HOP-62, > 100 µM (inactive); in the test with OVCAR-4, 88.9 µM (inactive); in the test with UACC-257, 59.6 µM (inactive); in the test on HCC 2998, > 100 µM (inactive). In addition, the GI50 in the test on RXF 393 is > 100 µM (inactive); in the test with OVCAR-5, 16 µM (inactive); with OVCAR-3, 34 µM (inactive); with IGROV-1, > 100 µM (inactive); in the test with NCI-H522 it was 27.7 µM (inactive); with CAKI-1, 27.7 µM (inactive). The GI50 with SK-MEL-5 was 13.1 µM (inactive); with HCT-15 it was 78.9 µM.

For the compound `CCN(CC)c1ccc(C(=O)c2ccccc2C(=O)O)c(O)c1`, the GI50 in the test on CCRF-CEM, with HCT-116, with HOP-62, with OVCAR-4, with UACC-257 and in the test with RXF 393 was > 100 µM (inactive) each time. Moreover, the GI50 was > 100 µM (inactive) with OVCAR-5; > 100 µM (inactive) in the test with OVCAR-3; > 100 µM (inactive) with IGROV-1; 42.9 µM (inactive) in the test with NCI-H522; > 100 µM (inactive) with Malme-3M; > 100 µM (inactive) in the test on CAKI-1. Moreover, the GI50 is > 100 µM (inactive) in the test on SK-MEL-5 and above 100 µM in the test with HCT-15.

With `COc1cc(CCc2ccc(OC(C)=O)cc2)cc(OC)c1OC`, the GI50 with CCRF-CEM, in the test on HCT-116, with HOP-62, in the test with OVCAR-4, in the test on UACC-257 and in the test on RXF 393 was > 100 µM (inactive) each time. For the same compound, the GI50 in the test with OVCAR-5 was 72.4 µM (inactive); in the test on OVCAR-3, > 100 µM (inactive); in the test on IGROV-1, > 100 µM (inactive); in the test with NCI-H522, 52 µM (inactive); with Malme-3M it was > 100 µM (inactive); in the test with CAKI-1, > 100 µM (inactive). In addition, the figures for the GI50 with SK-MEL-5 and with HCT-15 were > 100 µM (inactive) and above 100 µM, respectively.

Regarding `Cc1cc2c(c3c1c1ccccc1n3C)C(=O)c1ccccc1C2=O`, the GI50 in the test with CCRF-CEM, in the test on HCT-116, in the test on HOP-62, in the test with OVCAR-4, with UACC-257 and with HCC 2998 was > 100 µM (inactive) each time. Besides, the GI50 in the test on RXF 393 was > 100 µM (inactive); in the test on OVCAR-5, > 100 µM (inactive); in the test with OVCAR-3, > 100 µM (inactive); in the test with IGROV-1, 45.7 µM (inactive); with NCI-H522 it was 75.3 µM (inactive); in the test with Malme-3M it was > 100 µM (inactive). For the same compound, the GI50 with SK-MEL-5 is > 100 µM (inactive); with HCT-15, above 100 µM.

Take `O=C1[C@@H]2C(c3ccc(Cl)cc3Cl)=NO[C@@H]2C(=O)N1c1ccc(Cc2ccc(N3C(=O)[C@H]4C(c5ccc(Cl)cc5Cl)=NO[C@H]4C3=O)cc2)cc1`: the GI50 was 12.9 µM (inactive) with CCRF-CEM; > 100 µM (inactive) with HOP-62; > 100 µM (inactive) with OVCAR-4; 41.6 µM (inactive) in the test with UACC-257; > 100 µM (inactive) in the test with HCC 2998; 13.6 µM (inactive) in the test on RXF 393. Besides, the GI50 with OVCAR-5 was > 100 µM (inactive); in the test with OVCAR-3, 61 µM (inactive); with IGROV-1, 70 µM (inactive); in the test on Malme-3M, 84.3 µM (inactive); in the test with CAKI-1, 60.4 µM (inactive); in the test on SK-MEL-5 it was 52.1 µM (inactive). The compound also had a GI50 with HCT-15 of 46.6 µM.

Turning to `Cc1cc(NS(=O)(=O)c2ccc(NC(=O)c3cccc4c(Nc5ccc(S(=O)(=O)Nc6cc(C)on6)cc5)c5ccccc5nc34)cc2)no1`, the GI50 in the test on CCRF-CEM is 35.6 µM (inactive); in the test with HOP-62, 47.8 µM (inactive); with OVCAR-4, 17.2 µM (inactive); in the test with UACC-257 it was > 100 µM (inactive); with RXF 393, 25.8 µM (inactive); with OVCAR-5, > 100 µM (inactive). Further, the GI50 is 87.3 µM (inactive) in the test on OVCAR-3; 27.7 µM (inactive) in the test with IGROV-1; 20 µM (inactive) with NCI-H522; > 100 µM (inactive) in the test with Malme-3M; 70.1 µM (inactive) in the test with CAKI-1; 69.2 µM (inactive) with SK-MEL-5. The GI50 with HCT-15 is above 100 µM.

As for `CCCCOC(=O)CNC(=O)OCCCCC#CC#CCCCCOC(=O)NCC(=O)OCCCC`, the GI50 in the test on CCRF-CEM, in the test on HCT-116, in the test on HOP-62, in the test on OVCAR-4, in the test with UACC-257 and in the test on HCC 2998 was > 100 µM (inactive) throughout. For the same compound, the GI50 with OVCAR-5 is > 100 µM (inactive); with IGROV-1, > 100 µM (inactive); in the test with NCI-H522, 76.7 µM (inactive); in the test with Malme-3M, > 100 µM (inactive); in the test with CAKI-1, > 100 µM (inactive); in the test on SK-MEL-5, > 100 µM (inactive).

In the case of `CCCCCCCCCCCCCS(=O)(=O)O`, the GI50 in the test on CCRF-CEM, with HCT-116, in the test on HOP-62, with OVCAR-4, in the test on UACC-257 and in the test with HCC 2998 was > 100 µM (inactive) each time. Also, the GI50 in the test on RXF 393, in the test on OVCAR-5, in the test with OVCAR-3, with IGROV-1, in the test on NCI-H522 and in the test on Malme-3M was > 100 µM (inactive) throughout. Also, the figures for the GI50 in the test with SK-MEL-5 and with HCT-15 were > 100 µM (inactive) and above 100 µM, respectively.

Regarding `C#Cc1cc(CN(CC(=O)OC(C)(C)C)CC(=O)OC(C)(C)C)nc(CN(CC(=O)OC(C)(C)C)CC(=O)OC(C)(C)C)c1`, the GI50 in the test on CCRF-CEM is 2.96 µM (inactive); with HOP-62, 3.92 µM (inactive); with OVCAR-4, 6.19 µM (inactive); in the test with UACC-257 it was 2.82 µM (inactive); with HCC 2998 it was 4.31 µM (inactive); in the test on RXF 393 it was 2.84 µM (inactive). In addition, the GI50 in the test with OVCAR-5 was 21.6 µM (inactive); in the test on OVCAR-3, 3.04 µM (inactive); in the test on IGROV-1, 7.66 µM (inactive); in the test with NCI-H522 it was 2.01 µM (inactive); in the test on Malme-3M, 4.17 µM (inactive); in the test on CAKI-1, 10 µM (inactive). In addition, the GI50 in the test with SK-MEL-5 was 3.59 µM (inactive); in the test on HCT-15, 24.6 µM.

Regarding `COc1ccccc1/C=C1\CCC(CCN2CCOCC2)C1=O` (stereo not given), the GI50 in the test with CCRF-CEM was 38.7 µM (inactive); in the test on HCT-116, 70.8 µM (inactive); with HOP-62, > 100 µM (inactive); in the test on OVCAR-4, 37.8 µM (inactive); with UACC-257 it was > 100 µM (inactive); in the test with HCC 2998, 66.1 µM (inactive). Further, the GI50 with RXF 393 was 59.8 µM (inactive); in the test with OVCAR-5, > 100 µM (inactive); in the test with OVCAR-3, > 100 µM (inactive); in the test with IGROV-1, > 100 µM (inactive); in the test with Malme-3M it was > 100 µM (inactive); in the test with CAKI-1 it was > 100 µM (inactive). Further, the GI50 is 68.1 µM (inactive) in the test on SK-MEL-5 and 91.8 µM in the test with HCT-15.

Source of the values: ChEMBL document CHEMBL1201862, “PubChem BioAssay data set” (2004).
